The source of these data is patent US20240050392A1, “COMPOSITIONS AND METHODS FOR IMPROVED TREATMENT OF PLATINUM-BASED CHEMOTHERAPEUTIC RESISTANT TUMORS” (THE REGENTS OF THE UNIVERSITY OF THE COLORADO, A BODY …, priority 2021, published 2024).

The conditions of data set [1]: active form, accumulates in cells; cited from earlier work.
The subject of the next data set is KU1919 and T24 cells. As to the kind of experiment: Intracellular carboplatin measurements with NPEPPS and LRRC8A knockdown. It is filed as cell-based, human. The settings on record: KU1919 and T24 parental and GemCis cells.
The subject of data set [2] is KU1919-GemCis and KU1919 parental cells. As to the kind of experiment: Drug dose response with NPEPPS knockdown or overexpression. It is filed as cell-based, human.
For data set [3], the system named is bladder tumor-derived organoids. Briefly: Tumor-derived organoid drug screening (alamarBlue viability, reseeding). The class given is cell-based, human. As to the method:
Three independent organoid models derived from patients that failed between 4 to 6 cycles of neoadjuvant gemcitabine plus cisplatin chemotherapy (FIG. 10A). The organoids mimicked the morphological and genomic characteristics of the tumor from which they were derived (FIG. 10B). These organoids were treated with increasing doses of cisplatin and 20 μM of tosedostat.
Tumor-derived Organoids. Culture of the organoids. Human bladder tissue was obtained from the Erasmus MC Bladder Cancer Center, Rotterdam, the Netherlands. Bladder tumor-derived organoids from biopsies obtained through TURBT or cystectomy. Briefly, bladder tissues were washed with Advanced DMEM/F12 (Gibco) supplemented with 10 mM HEPES (Gibco), 1% GlutaMax (Gibco) and 100 μg/ml primocin (InvivoGen), henceforth Ad+++. Tissue was minced and incubated at 37° C. with the digestion solution (collagenase 2.5 mg/ml in EBSS) and isolated cells were passed through […] strainer (Falcon), washed with Ad+++ and seeded in 50 μl drops of BME (R&D system) containing 10000-15000 cells in 24 well suspension plates (Greiner). Bladder tumor organoids were cultured in a culture medium containing Ad+++ supplemented with 1×B-27 (Gibco), 1.25 mM N-acetylcysteine (Sigma), 10 mM nicotinamide, 20 μM TGFβ receptor inhibitor A83-01, 100 ng/ml recombinant human FGF10 (Peprotech), 25 ng/ml recombinant human FGF7 (Peprotech), 12.5 ng/ml recombinant human FGF2 (Peprotech), 10 μM Y27632 Rho Kinase (ROCK) Inhibitor (Sigma) and conditioned media for recombinant Rspondin (2.5% v/v), and Wnt3A (2.5% v/v). The medium was changed every three days. Organoids were passaged at a 1:3 to 1:6 ratio every 7 days using cell dissociation solution-non enzymatic (Sigma) and plated in fresh BME matrix droplets.
Drug screening. Organoids were collected 7 days after passaging, passed through a […] strainer and 1000 organoids were seeded per well of a 48-well plate in BME matrix droplets. After 24 hours cisplatin (Sigma) resuspended in PBS was added at different concentrations (2, 10, 25, and 50 μM) with or without tosedostat (20 μM) (Tocris) resuspended in DMSO. All wells were adjusted to contain less than 0.7% DMSO. Organoids were cultured for the first 6 days in the presence of drugs followed by drug withdrawal, where organoids were grown in organoid culture media for 10 days. The entire content of the wells in different treatment groups was collected, washed and reseeded after disaggregation in fresh BME, and cultured for 6 days. Cell viability was assayed using alamarBlue (Invitrogen) according to the manufacturer's instructions after 6 days of drug incubation, 10 days of drug withdrawal, and 6 days post reseeding. Viability data was normalized using organoid wells treated with vehicle control.
(Alamar Blue is a resazurin reagent that responds to reducing activity.)

Data set [4] concerns KU1919, T24, and TCCSUP GemCis-resistant cells. As to the kind of experiment: Cell culture dose response (IncuCyte growth inhibition) of tosedostat with gemcitabine and/or cisplatin. It is filed as cell-based, human. As to the method: One feature of NPEPPS is the availability of agents that inhibit its activity. Tosedostat, an orally available M1 aminopeptidase prodrug has antileukemic activity and is readily available for use. […] Tosedostat is antiproliferative, proapoptotic, and has antiangiogenic effects. The response of the KU1919, T24, and TCCSUP GemCis-resistant cells to increasing doses of tosedostat with gemcitabine, cisplatin, and gemcitabine plus cisplatin was measured. (FIGS. 3F-3H).
Cell Line Drug Treatments. Gemcitabine (Sigma) and cisplatin (Sigma) stocks were resuspended in 0.9% saline solution and tosedostat (Sigma and BOC Sciences) was resuspended in DMSO. All stocks solutions were stored protected from light and kept frozen until use. For cell culture dose response, cells were seeded in 96-well tissue culture plates with 500-2000 cells per well depending on growth rate and duration of experiment. Cells were seeded and allowed to attach overnight followed by replacing the media with fresh, pre-warmed media just prior to treatment. Drug dilutions were performed serially and using complete media (IMDM+10% FBS) and the associated drug treatments. Growth inhibition was measured using confluence estimates over time on the IncuCyte ZOOM (Essen Bioscience) over varying amounts of time depending on each experiment. Details for timing and replicates for each experiment are included in their respective figure legends.

Regarding `CC(C)C[C@@H](C(=O)N[C@H](C(=O)O)c1ccccc1)[C@H](O)C(=O)NO` [CHR-79888], the membrane permeability entry in data set [1] is listed as “poorly membrane-permeable”.

Regarding `N.N.O=C([O-])C1(C(=O)[O-])CCC1.[Pt+2]` [carboplatin], in the data set with KU1919 and T24 cells, the “NPEPPS-mediated import pattern of carboplatin compared with cisplatin” value is “the same patterns were found”.

Turning to `Nc1ccn([C@@H]2O[C@H](CO)[C@@H](O)C2(F)F)c(=O)n1` [gemcitabine], the “effect of NPEPPS knockdown on drug response” value in data set [2] (KU1919-GemCis cells, stable NPEPPS shRNA knockdown) is “not gemcitabine alone”. For the same molecule, the “effect of NPEPPS overexpression on drug response” value in data set [2] (KU1919 parental lines overexpressing NPEPPS) was “not gemcitabine”.

On to `CC(C)C[C@@H](C(=O)N[C@H](C(=O)OC1CCCC1)c1ccccc1)[C@H](O)C(=O)NO` [tosedostat], for which the organoid growth entry is listed as “significantly decreased organoid growth” in data set [3] (20 μM tosedostat in combination with 2 μM and 10 μM cisplatin); “minor effect on organoid growth” in data set [3] (tosedostat alone, 20 μM). In addition, the “combined effect on cell growth” value in data set [4] (increasing doses of tosedostat with cisplatin) is “strongest combined effect”; in data set [4] (increasing doses of tosedostat with gemcitabine), “little to no effect”; in data set [4] (increasing doses of tosedostat with gemcitabine plus cisplatin), “strongest combined effect”.
